Experimental data as given in PubChem BioAssay (NCI).
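96-well plates; 48 h exposure; 5 concentrations. Endpoints by linear interpolation between flanking doses. Not reached: highest tested concentration assigned. GI50: concentration for 50% inhibition of growth. TGI is the concentration that stops growth completely.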

Legend:
Test in all cases: DTP human tumour cell line panel, 48 h
[1] = test system: UACC-62 melanoma
[2] = test system: MOLT-4 leukemia
[3] = test system: SW-620 colon
[4] = test system: SNB-19 CNS
[5] = test system: HT29 colon
[6] = test system: KM12 colon
[7] = test system: BT-549 breast
[8] = test system: SK-OV-3 ovarian
[9] = test system: NCI-H460 lung
[10] = test system: OVCAR-5 ovarian
[11] = test system: SN12C renal
[12] = test system: LOX IMVI melanoma
[13] = test system: UO-31 renal
[14] = test system: MDA-MB-435
[15] = test system: T-47D breast
[16] = test system: COLO 205 colon
[17] = test system: SK-MEL-5 melanoma
[18] = test system: SR leukemia
[19] = test system: HOP-92 NSCLC
[20] = test system: MDA-MB-468 breast
[21] = test system: 786-0 renal
[22] = test system: OVCAR-4 ovarian
[23] = test system: PC-3 prostate
[24] = test system: EKVX NSCLC
[25] = test system: UACC-257 melanoma
[26] = test system: IGROV1 ovarian
[27] = test system: U251 CNS
[28] = test system: HOP-62 NSCLC
[29] = test system: TK-10 renal
[30] = test system: HCC-2998 colon
[31] = test system: HCT-116 colon
[32] = test system: NCI-H226 lung
[33] = test system: SNB-75 CNS
[34] = test system: NCI-H522 lung
[35] = test system: NCI-H23 lung
[36] = test system: HS 578T breast
[37] = test system: ACHN renal
[38] = test system: OVCAR-3 ovarian
[39] = test system: CCRF-CEM leukemia
[40] = test system: A549 NSCLC
[41] = test system: CAKI-1 renal
[42] = test system: K-562 leukemia
[43] = test system: SF-268 CNS
[44] = test system: HCT-15 colon
[45] = test system: MDA-MB-231 breast
[46] = test system: A498 renal
[47] = test system: MALME-3M melanoma
[48] = test system: SK-MEL-2 melanoma
[49] = test system: M14 melanoma
[50] = test system: RPMI-8226 leukemia
[51] = test system: DU-145 prostate
[52] = test system: NCI/ADR-RES ovarian
[53] = test system: SF-295 CNS
[54] = test system: SK-MEL-28 melanoma
[55] = test system: MCF7 breast
[56] = test system: OVCAR-8 ovarian
[57] = test system: SF-539 CNS
[58] = test system: HL-60(TB) leukemia

N/C(=N\c1nc2ccccc2s1)NC(=O)Nc1ccccc1Br was tested, and the GI50 [1] was 88.2 nM, the TGI [1] was > 35100 nM and the GI50 [2] was 165 nM. For the same compound, the TGI [2] was > 33800 nM, the GI50 [3] was 116 nM and the TGI [3] was > 38100 nM. The GI50 [4] was 178 nM, the TGI [4] was > 43100 nM and the GI50 [5] was 92.1 nM. It also gave a TGI [5] of 286 nM, a GI50 [6] of 125 nM and a GI50 [7] of 256 nM. The TGI [7] was 7180 nM, the GI50 [8] was 188 nM and the TGI [8] was > 32200 nM. The GI50 [9] was 116 nM, the GI50 [10] was 220 nM and the GI50 [11] was 194 nM. The GI50 [12] was 235 nM, the TGI [12] was 8740 nM and the GI50 [13] was 184 nM. The TGI [13] was > 37200 nM, the GI50 [14] was < 37.2 nM and the TGI [14] was 76.7 nM. For the same compound, the GI50 [15] was 51.3 nM, the TGI [15] was > 100000 nM and the GI50 [16] was 96.4 nM. The TGI [16] was 328 nM, the GI50 [17] was 103 nM and the TGI [17] was 697 nM. The TGI [18] was > 41800 nM, the TGI [19] was > 28100 nM and the GI50 [20] was 419 nM. For the same compound, the TGI [20] was 1660 nM, the GI50 [21] was 170 nM and the GI50 [22] was 6210 nM. The TGI [22] was > 23500 nM, the GI50 [23] was 162 nM and the TGI [23] was > 53100 nM. For the same compound, the GI50 [24] was 183 nM, the TGI [24] was > 76900 nM and the TGI [25] was > 100000 nM. The GI50 [26] was 164 nM, the TGI [26] was > 35000 nM and the GI50 [27] was 116 nM. For the same compound, the GI50 [28] was 145 nM, the TGI [28] was > 32000 nM and the TGI [29] was > 28400 nM. It also gave a GI50 [30] of 192 nM, a TGI [30] of 3390 nM and a GI50 [31] of 115 nM. For the same compound, the TGI [31] was 3630 nM, the GI50 [32] was 723 nM and the TGI [32] was 8730 nM. The GI50 [33] was 58.3 nM, the GI50 [34] was < 48.5 nM and the TGI [34] was 169 nM. For the same compound, the GI50 [35] was 146 nM, the TGI [35] was > 20600 nM and the GI50 [36] was 79.8 nM. The TGI [36] was > 25500 nM, the GI50 [37] was 244 nM and the GI50 [38] was 102 nM. The TGI [38] was 1340 nM, the GI50 [39] was 118 nM and the GI50 [40] was 282 nM. For the same compound, the GI50 [41] was 92.5 nM, the GI50 [42] was 75.3 nM and the TGI [42] was > 100000 nM. The GI50 [43] was 801 nM, the TGI [43] was > 35000 nM and the GI50 [44] was 116 nM. The GI50 [45] was 148 nM, the TGI [45] was 1430 nM and the GI50 [46] was > 38200 nM. For the same compound, the TGI [46] was > 58400 nM, the GI50 [47] was 151 nM and the TGI [47] was > 25000 nM. It also gave a GI50 [48] of 39.9 nM, a TGI [48] of 10800 nM and a GI50 [49] of 76.8 nM. The GI50 [50] was 149 nM, the GI50 [51] was 140 nM and the GI50 [52] was 10.1 nM. For the same compound, the TGI [52] was 40.6 nM, the GI50 [53] was 104 nM and the TGI [53] was 3860 nM. The GI50 [54] was 1430 nM, the TGI [54] was > 100000 nM and the GI50 [55] was 119 nM. For the same compound, the TGI [55] was > 91600 nM, the GI50 [56] was 148 nM and the GI50 [57] was 69.3 nM. The TGI [57] was 195 nM and the GI50 [58] was 89.3 nM.
